Measurements reported in US9861616B2, “Methods for treating respiratory diseases and formulations therefor” (priority 2013, dated 2018).
Converted amounts (≈) assume the structure as drawn.

Assays:
P. aeruginosa (PA) = experiment: MIC by microdilution, 36 clinical and laboratory strains with known efflux phenotype; format: cell-based
Procedure: (§1) MICs of 36 clinical and laboratory strains of PA with known efflux phenotype are measured by microdilution in cation-adjusted Muller-Hinton broth (CA-MHB) or in RPMI medium (commonly used in eukaryotic cell culture). Phe-Arg-β-naphthylamide (PaβN, 50 mg/L) and EGTA 5 mM are used to inhibit efflux pumps and alter OM integrity, respectively. P. aeruginosa strain ATCC PAO1 is used as reference. PA12 is a clinical strain overexpressing the 4 main efflux systems (MexAB, MexCD, MexEF, MexXY), PA403 is a laboratory strain deleted in the genes coding for the 4 efflux systems. A series of reference strains or of clinical isolates for which the expression of genes coding for efflux pumps is known is also used for MICs determinations. MICs are measured by microdilution in MH broth or in RPMI medium (used for eukaryotic cells culture) supplemented with 10% of fetal calf serum, or in MH broth supplemented by increasing amounts of serum. EGTA (5 mM) was used as a chelating agent (disrupting outer membrane integrity) and PaβN (50 mg/L) as an unspecific efflux inhibitor.

IL-8 (CXCL8) release = experiment: LPS-induced IL-8 (CXCL8) release in PMA-differentiated U937 cells (ELISA); format: cell-based, human
Procedure: Effects of macrolides on lipopolysaccharide (LPS)-induced CXCL8 release in PMA-differentiated U937 cells. […] LPS-induced CXCL8 release was evaluated by ELISA. Values represent means of three experiments±SEM. ^##p<0.01 (vs. non-treatment control), *p<0.05, **p<0.01 (vs. treatment with LPS only).
The human monocytic cell line U937 was obtained from the American Type Culture Collection (ATCC, Rockville, Md.). PBMCs from COPD patients were obtained from Brompton hospital and separated by AccuSPIN (Sigma-Aldrich). Cells were cultured in complete growth medium (RPMI 1640) (Sigma-Aldrich) supplemented with 10% fetal bovine serum (FBS) and 1% L-glutamine at 37° C. in a humidified atmosphere with 5% CO2. U937 cells were differentiated into adherent macrophage-like morphology by exposure to PMA (50 ng/mL) for 48 hrs in complete growth medium. Cell viability was assessed microscopically by trypan blue staining. Cell toxicity was determined by MTT assay as needed. This study was approved by the ethics committee of the Royal Brompton Hospitals, and all subjects gave written informed consent.
TNFα and IL-8 concentrations in the supernatant of cell cultures were determined by sandwich ELISA according to the manufacturer's instructions (R&D Systems Europe, Abingdon, UK).
The results were expressed as the mean±SEM. Comparisons of data in two groups were performed using the Student's t test or the Wilcoxon signed rank test. Multiple comparisons were made by one-way ANOVA with post hoc test (Dunnett's) as appropriate. The difference was considered significant at p<0.05. IC50 values (50% inhibitory concentration) for macrolides for production of cytokines or MMP9 were calculated using Prism 4.0 (GraphPad Software Inc., San Diego, Calif.).

P. aeruginosa PA403 = experiment: MIC by microdilution with PaβN or EGTA, efflux-deleted laboratory strain; format: cell-based
Procedure: as §1, with “The compounds described herein are poor substrates of efflux pumps expressed in P. aeruginosa (PA). MICs of” for “MICs of”

Structure (SMILES): CC[C@H]1OC(=O)[C@@](C)(F)C(=O)[C@H](C)[C@@H](O[C@@H]2O[C@H](C)C[C@H](N(C)C)[C@H]2O)[C@](C)(OC)C[C@@H](C)C(=O)[C@H](C)[C@H]2N(CCCCn3cc(-c4cccc(N)c4)nn3)C(=O)O[C@]12C [CEM-101, solithromycin]
- difference in MIC in the presence of efflux pump inhibitors (P. aeruginosa (PA); compared with the other macrolides, Table 2 strains): smaller difference
- MIC (P. aeruginosa (PA); strain 1, efflux AB+, MHB): 128 µg/mL (≈ 151 µM)
- MIC (P. aeruginosa (PA); strain 1, efflux AB+, RPMI): 2 µg/mL (≈ 2.37 µM)
- MIC (P. aeruginosa (PA); strain 2, efflux CD+, MHB): 256 µg/mL (≈ 303 µM)
- MIC (P. aeruginosa (PA); strain 2, efflux CD+, RPMI): 8 µg/mL (≈ 9.47 µM)
- MIC (P. aeruginosa (PA); strain 3, efflux EF+, MHB): 8 µg/mL (≈ 9.47 µM)
- MIC (P. aeruginosa (PA); strain 3, efflux EF+, RPMI): 1 µg/mL (≈ 1.18 µM)
- MIC (P. aeruginosa (PA); strain 4, efflux XY+, MHB): 128 µg/mL (≈ 151 µM)
- MIC (P. aeruginosa (PA); strain 4, efflux XY+, RPMI): 4 µg/mL (≈ 4.73 µM)
- MIC (P. aeruginosa (PA); strain 11, efflux AB + CD+, MHB): 16 µg/mL
- MIC (P. aeruginosa (PA); strain 11, efflux AB + CD+, RPMI): 2 µg/mL
- MIC (P. aeruginosa (PA); strain 12, efflux AB + CD + EF + XY+, MHB): 128 µg/mL
- MIC (P. aeruginosa (PA); strain 12, efflux AB + CD + EF + XY+, RPMI): 4 µg/mL
- MIC (P. aeruginosa (PA); strain 16, efflux AB + XY+, MHB): 32 µg/mL
- MIC (P. aeruginosa (PA); strain 16, efflux AB + XY+, RPMI): 4 µg/mL
- MIC (P. aeruginosa (PA); strain 21, efflux AB+, MHB): 128 µg/mL (≈ 151 µM)
- MIC (P. aeruginosa (PA); strain 21, efflux AB+, RPMI): 4 µg/mL (≈ 4.73 µM)
- MIC (P. aeruginosa (PA); strain 22, efflux XY+, MHB): 64 µg/mL (≈ 75.7 µM)
- MIC (P. aeruginosa (PA); strain 22, efflux XY+, RPMI): 4 µg/mL (≈ 4.73 µM)
- MIC (P. aeruginosa (PA); strain 40, efflux EF+, MHB): 32 µg/mL (≈ 37.9 µM)
- MIC (P. aeruginosa (PA); strain 40, efflux EF+, RPMI): 4 µg/mL (≈ 4.73 µM)
- MIC (P. aeruginosa (PA); strain 41, efflux CD+, MHB): 256 µg/mL (≈ 303 µM)
- MIC (P. aeruginosa (PA); strain 41, efflux CD+, RPMI): 4 µg/mL (≈ 4.73 µM)
- MIC (P. aeruginosa (PA); strain 48, efflux CD + EF + XY+, MHB): 128 µg/mL
- MIC (P. aeruginosa (PA); strain 48, efflux CD + EF + XY+, RPMI): 4 µg/mL
- MIC (P. aeruginosa (PA); strain 49, efflux CD + EF + XY+, MHB): 128 µg/mL
- MIC (P. aeruginosa (PA); strain 49, efflux CD + EF + XY+, RPMI): 4 µg/mL
- MIC (P. aeruginosa (PA); strain 63, efflux AB + EF + XY+, MHB): 64 µg/mL
- MIC (P. aeruginosa (PA); strain 63, efflux AB + EF + XY+, RPMI): 4 µg/mL
- MIC (P. aeruginosa (PA); strain 68, efflux AB + XY+, MHB): 64 µg/mL
- MIC (P. aeruginosa (PA); strain 68, efflux AB + XY+, RPMI): 4 µg/mL
- MIC (P. aeruginosa (PA); strain 133, efflux EF + XY+, MHB): 64 µg/mL
- MIC (P. aeruginosa (PA); strain 133, efflux EF + XY+, RPMI): 4 µg/mL
- MIC (P. aeruginosa (PA); strain 156, efflux EF + XY+, MHB): 64 µg/mL
- MIC (P. aeruginosa (PA); strain 156, efflux EF + XY+, RPMI): 2 µg/mL
- MIC (P. aeruginosa (PA); strain 168B, efflux CD + XY+, MHB): 128 µg/mL
- MIC (P. aeruginosa (PA); strain 168B, efflux CD + XY+, RPMI): 4 µg/mL
- MIC (P. aeruginosa (PA); strain 207, efflux AB + EF + XY+, MHB): 32 µg/mL
- MIC (P. aeruginosa (PA); strain 207, efflux AB + EF + XY+, RPMI): 4 µg/mL
- MIC (P. aeruginosa (PA); strain 266B, efflux AB + CD+, MHB): 256 µg/mL
- MIC (P. aeruginosa (PA); strain 266B, efflux AB + CD+, RPMI): 4 µg/mL
- MIC (P. aeruginosa (PA); strain 333A, efflux AB + EF+, MHB): 128 µg/mL
- MIC (P. aeruginosa (PA); strain 333A, efflux AB + EF+, RPMI): 2 µg/mL
- MIC (P. aeruginosa (PA); strain 335, efflux AB + EF+, MHB): 128 µg/mL
- MIC (P. aeruginosa (PA); strain 335, efflux AB + EF+, RPMI): 2 µg/mL
- MIC (P. aeruginosa (PA); strain 391, efflux EF−, MHB): 32 µg/mL (≈ 37.9 µM)
- MIC (P. aeruginosa (PA); strain 391, efflux EF−, RPMI): 2 µg/mL (≈ 2.37 µM)
- MIC (P. aeruginosa (PA); strain 392, efflux CD−, MHB): 16 µg/mL (≈ 18.9 µM)
- MIC (P. aeruginosa (PA); strain 392, efflux CD−, RPMI): 1 µg/mL (≈ 1.18 µM)
- MIC (P. aeruginosa (PA); strain 394, efflux XY−, MHB): 32 µg/mL (≈ 37.9 µM)
- MIC (P. aeruginosa (PA); strain 394, efflux XY−, RPMI): 4 µg/mL (≈ 4.73 µM)
- MIC (P. aeruginosa (PA); strain 395, efflux HI−, MHB): 64 µg/mL (≈ 75.7 µM)
- MIC (P. aeruginosa (PA); strain 395, efflux HI−, RPMI): 2 µg/mL (≈ 2.37 µM)
- MIC (P. aeruginosa (PA); strain 396, ompH−, MHB): 8 µg/mL (≈ 9.47 µM)
- MIC (P. aeruginosa (PA); strain 396, ompH−, RPMI): 2 µg/mL (≈ 2.37 µM)
- MIC (P. aeruginosa (PA); strain 397, efflux AB−, MHB): 2 µg/mL (≈ 2.37 µM)
- MIC (P. aeruginosa (PA); strain 397, efflux AB−, RPMI): 1 µg/mL (≈ 1.18 µM)
- MIC (P. aeruginosa (PA); strain 398, efflux CD−, MHB): 4 µg/mL (≈ 4.73 µM)
- MIC (P. aeruginosa (PA); strain 398, efflux CD−, RPMI): 2 µg/mL (≈ 2.37 µM)
- MIC (P. aeruginosa (PA); strain 399, efflux AB − EF−, MHB): 8 µg/mL (≈ 9.47 µM)
- MIC (P. aeruginosa (PA); strain 399, efflux AB − EF−, RPMI): 1 µg/mL (≈ 1.18 µM)
- MIC (P. aeruginosa (PA); strain 400, efflux XY−, MHB): 4 µg/mL (≈ 4.73 µM)
- MIC (P. aeruginosa (PA); strain 400, efflux XY−, RPMI): 1 µg/mL (≈ 1.18 µM)
- MIC (P. aeruginosa (PA); strain 401, ompH−, MHB): 2 µg/mL (≈ 2.37 µM)
- MIC (P. aeruginosa (PA); strain 401, ompH−, RPMI): 2 µg/mL (≈ 2.37 µM)
- MIC (P. aeruginosa (PA); strain 403, efflux AB − CD − EF − XY−, MHB): 4 µg/mL (≈ 4.73 µM)
- MIC (P. aeruginosa (PA); strain 403, efflux AB − CD − EF − XY−, RPMI): 1 µg/mL (≈ 1.18 µM)
- MIC (P. aeruginosa (PA); strain 405, efflux AB − CD − EF − XY−, MHB): 4 µg/mL (≈ 4.73 µM)
- MIC (P. aeruginosa (PA); strain 405, efflux AB − CD − EF − XY−, RPMI): 1 µg/mL (≈ 1.18 µM)
- MIC (P. aeruginosa (PA); strain 434, efflux AB + CD + XY+, MHB): 128 µg/mL
- MIC (P. aeruginosa (PA); strain 434, efflux AB + CD + XY+, RPMI): 8 µg/mL
- MIC (P. aeruginosa (PA); strain PAO1, REFERENCE, MHB): 128 µg/mL (≈ 151 µM)
- MIC (P. aeruginosa (PA); strain PAO1, REFERENCE, RPMI): 4 µg/mL (≈ 4.73 µM)
- IC50 (IL-8 (CXCL8) release; PMA-differentiated U937 cells, read-out: IC50, LPS-induced IL-8 (CXCL8) release): 78.2 ± 9.5 µM
- effect on CXCL8 production (IL-8 (CXCL8) release; at 100 μM): significantly inhibited
- MIC (P. aeruginosa PA403; P403, CA-MHB, EGTA 5 mM): 1 µg/mL (≈ 1.18 µM)
- MIC (P. aeruginosa PA403; P403, CA-MHB, control conditions (CT)): 4 µg/mL (≈ 4.73 µM)
- MIC (P. aeruginosa PA403; P403, RPMI, EGTA 5 mM): 0.25 µg/mL (≈ 0.296 µM)
- MIC (P. aeruginosa PA403; P403, RPMI, PaβN 50 mg/L): 2 µg/mL (≈ 2.37 µM)
- MIC (P. aeruginosa PA403; P403, RPMI, control conditions (CT)): 1 µg/mL (≈ 1.18 µM)
